The record followed here is ChEMBL document CHEMBL3779835, “Identification of an Inhibitor of the Aminoglycoside 6'-N-Acetyltransferase type Ib [AAC(6')-Ib] by Glide Molecular Docking” (Medchemcomm, 2016).

pIC50: −log10 of the molar value. Active and inactive are the calls of the source. The rule behind the calls is not given here.

Test [1] concerns Acinetobacter baumannii. The experiment in a line: Inhibition of AAC(6')-1b in amikacin-resistant Acinetobacter baumannii A155 harboring AAC(6')-1b assessed as growth inhibition at 100 uM in presence of 6 ug/ml amikacin.
The nature of test [2]: Inhibition of AAC(6')-1b (unknown origin) expressed in Escherichia coli TOP10 assessed as reduction in acetylation of amikacin in presence of acetyl CoA by DTNB based microplate reader analysis.
Test [3] can be described thus: Mixed-noncompetitive inhibition of AAC(6')-1b (unknown origin) expressed in Escherichia coli TOP10 assessed as reduction in acetylation of kanamycin A in presence of varying kanamycin A and in presence of fixed acetyl CoA level by DTNB based microplate reader analysis.
The nature of test [4]: Uncompetitive inhibition of AAC(6')-1b (unknown origin) expressed in Escherichia coli TOP10 assessed as reduction in acetylation of kanamycin A in presence of varying acetyl CoA by DTNB based microplate reader analysis.
Another test relates to Klebsiella pneumoniae. The experiment in a line: Inhibition of AAC(6')-1b in amikacin-resistant Klebsiella pneumoniae harboring AAC(6')-1b assessed as growth inhibition in presence of amikacin.
The nature of test [5]: Inhibition of AAC(6')-1b (unknown origin) expressed in Escherichia coli TOP10 assessed as reduction in acetylation of kanamycin A in presence of acetyl CoA by DTNB based microplate reader analysis.
In test [6] the test system is Acinetobacter baumannii. Briefly: Inhibition of AAC(6')-1b in amikacin-resistant Acinetobacter baumannii A155 harboring AAC(6')-1b assessed as growth inhibition at 50 uM in presence of 8 ug/ml amikacin.

With `NCCc1cccc(CN2CCC(O)(CN3CCCCC3)C2)c1` (racemic), the inhibition entry (in the test on Acinetobacter baumannii [1]; in test [3]; in test [4]; in the test on Acinetobacter baumannii [6]) was “Active” in each case. For the same molecule, the pIC50 in test [2] is 4.46; in test [5], 4.40. The “growth inhibition (GI)” value in the test with Klebsiella pneumoniae was “inactive”.
